Each molecule was assayed on HCT116 (assay: In vitro cytotoxicity measured by the cell colony formation assay). Conditions: HCT116 cells, 72 h drug incubation, colonies counted after 7 days; ID50 = drug concentration producing 50% inhibition of colony formation; read-out: IN VITRO ID 50 (nm) HCT116.
Format: cell-based
Description: In Vitro Cytotoxicity Measured by the Cell Colony Formation Assay
Four hundred cells (HCT116) were plated in 60 mm Petri dishes containing 2.7 mL of medium (modified McCoy's 5a medium containing 10% fetal bovine serum and 100 units/mL penicillin and 100 µg/mL streptomycin). The cells were incubated in a CO2 incubator at 37° C. for 5 h for attachment to the bottom of Petri dishes. The compounds identified in Example 2 were made up fresh in medium at ten times the final concentration, and then 0.3 mL of this stock solution was added to the 2.7 mL of medium in the dish. The cells were then incubated with drugs for 72 h at 37° C. At the end of incubation the drug-containing media were decanted, the dishes were rinsed with 4 mL of Hank's Balance Salt Solution (HBSS), 5 mL of fresh medium was added, and the dishes were returned to the incubator for colony formation. The cell colonies were counted using a colony counter after incubation for 7 days.

`C/C=C/C(=O)N[C@@H](c1ccsc1)[C@@H](O)C(=O)O[C@H]1C[C@@]2(O)[C@@H](OC(=O)c3ccccc3)C3[C@](C)(C(=O)[C@H](OC(=O)C4CC4)C(=C1C)C2(C)C)[C@@H](O)C[C@H]1OC[C@@]31OC(C)=O` (some centres unmarked) [Compound 5040] was tested. Which IC50 did it give?
Its IC50 is less than 1 nM.

`CCCC(=O)OC1C(=O)C2(C)C(O)CC3OCC3(OC(C)=O)C2C(OC(=O)c2ccccc2)C2(O)CC(OC(=O)C(O)C(NC(=O)OC(C)(C)C)C3CCC3)C(C)=C1C2(C)C` (centres unmarked) [Compound 1044] was tested. Which IC50 did it give?
The IC50 was less than 1 nM.

How did the IC50 turn out when `CCCC(=O)O[C@H]1C(=O)[C@@]2(C)C([C@H](OC(=O)c3ccccc3)[C@]3(O)C[C@H](OC(=O)[C@H](O)[C@@H](NC(=O)C=C(C)C)c4cccs4)C(C)=C1C3(C)C)[C@]1(OC(C)=O)CO[C@@H]1C[C@@H]2O` (some centres unmarked) [Compound 4344] was run?
The IC50 was less than 1 nM.

With `CCCC(=O)OC1C(=O)C2(C)C(O)CC3OCC3(OC(C)=O)C2C(OC(=O)c2ccccc2)C2(O)CC(OC(=O)C(O)C(NC(=O)OC(C)(C)C)C(C)C)C(C)=C1C2(C)C` (centres unmarked) [Compound 1031] as the molecule, how does the IC50 read?
Its IC50 is less than 10 nM.

Which IC50 does the source give for `CC(=O)O[C@@]12CO[C@@H]1C[C@H](O)[C@@]1(C)C(=O)[C@H](OC(=O)C3CC3)C3=C(C)[C@@H](OC(=O)[C@H](O)[C@@H](NC(=O)c4ccccc4)c4ccccc4)C[C@@](O)([C@@H](OC(=O)c4ccccc4)C12)C3(C)C` (some centres unmarked) [Compound 0937] here?
The IC50 was less than 10 nM.

`CC(=O)O[C@@]12CO[C@@H]1C[C@H](O)[C@@]1(C)C(=O)[C@H](OC(=O)C3CC3)C3=C(C)[C@@H](OC(=O)[C@H](O)[C@@H](NC(=O)OC(C)(C)C)c4ccco4)C[C@@](O)([C@@H](OC(=O)c4ccccc4)C12)C3(C)C` (some centres unmarked) [Compound 0843] was tested. Which IC50 did it give?
Its IC50 is less than 1 nM.

With `CCC(=O)O[C@H]1C(=O)[C@@]2(C)C([C@H](OC(=O)c3ccccc3)[C@]3(O)C[C@H](OC(=O)[C@H](O)[C@@H](NC(=O)c4ccccc4)c4ccccc4)C(C)=C1C3(C)C)[C@]1(OC(C)=O)CO[C@@H]1C[C@@H]2O` (some centres unmarked) [Compound 0748] as the molecule, how does the IC50 read?
Its IC50 is less than 10 nM.

How did the IC50 turn out when `CC(=O)O[C@@]12CO[C@@H]1C[C@H](O)[C@@]1(C)C(=O)[C@H](OC(=O)C(C)C)C3=C(C)[C@@H](OC(=O)[C@H](O)[C@@H](NC(=O)OC(C)(C)C)c4ccncc4)C[C@@](O)([C@@H](OC(=O)c4ccccc4)C12)C3(C)C` (some centres unmarked) [Compound 2255] was run?
Its IC50 is less than 1 nM.

With `CC(=O)O[C@@]12CO[C@@H]1C[C@H](O)[C@@]1(C)C(=O)[C@H](OC(=O)C3CC3)C3=C(C)[C@@H](OC(=O)[C@H](O)[C@@H](NC(=O)OCC(C)C)c4ccoc4)C[C@@](O)([C@@H](OC(=O)c4ccccc4)C12)C3(C)C` (some centres unmarked) [Compound 4665] as the molecule, how does the IC50 read?
The IC50 was less than 10 nM.

How did the IC50 turn out when `CCCC(=O)O[C@H]1C(=O)[C@@]2(C)C([C@H](OC(=O)c3ccccc3)[C@]3(O)C[C@H](OC(=O)[C@H](O)[C@@H](NC(=O)c4ccccc4)c4ccco4)C(C)=C1C3(C)C)[C@]1(OC(C)=O)CO[C@@H]1C[C@@H]2O` (some centres unmarked) [Compound 3204] was run?
The IC50 was less than 1 nM.

Which IC50 does the source give for `CC(=O)O[C@@]12CO[C@@H]1C[C@H](O)[C@@]1(C)C(=O)[C@H](OC(=O)C3CC3)C3=C(C)[C@@H](OC(=O)[C@H](O)[C@@H](NC(=O)OC(C)(C)C)c4ccsc4)C[C@@](O)([C@@H](OC(=O)c4ccccc4)C12)C3(C)C` (some centres unmarked) [Compound 2794] here?
Its IC50 is less than 1 nM.

`CCCC(=O)O[C@H]1C(=O)[C@@]2(C)C([C@H](OC(=O)c3ccccc3)[C@]3(O)C[C@H](OC(=O)[C@H](O)[C@@H](NC(=O)OC(C)(C)C)c4ccccn4)C(C)=C1C3(C)C)[C@]1(OC(C)=O)CO[C@@H]1C[C@@H]2O` (some centres unmarked) [Compound 0951] was tested. Which IC50 did it give?
The IC50 was less than 1 nM.

How did the IC50 turn out when `CC(=O)O[C@@]12CO[C@@H]1C[C@H](O)[C@@]1(C)C(=O)[C@H](OC(=O)C=C(C)C)C3=C(C)[C@@H](OC(=O)[C@H](O)[C@@H](NC(=O)OC(C)(C)C)c4cccs4)C[C@@](O)([C@@H](OC(=O)c4ccccc4)C12)C3(C)C` (some centres unmarked) [Compound 2503] was run?
The IC50 was less than 1 nM.

For `CC(=O)OC12COC1CC(O)C1(C)C(=O)C(OC(=O)c3cccs3)C3=C(C)C(OC(=O)C(O)C(NC(=O)OC(C)(C)C)c4cccnc4)CC(O)(C(OC(=O)c4ccccc4)C21)C3(C)C` (centres unmarked) [Compound 1948], which IC50 is on record?
The IC50 was less than 10 nM.

How did the IC50 turn out when `CCC(=O)O[C@H]1C(=O)[C@@]2(C)C([C@H](OC(=O)c3ccccc3)[C@]3(O)C[C@H](OC(=O)[C@H](O)[C@H](C=C(C)C)NC(=O)c4ccccc4)C(C)=C1C3(C)C)[C@]1(OC(C)=O)CO[C@@H]1C[C@@H]2O` (some centres unmarked) [Compound 0625] was run?
Its IC50 is less than 1 nM.

`C/C=C/C(=O)O[C@H]1C(=O)[C@@]2(C)C([C@H](OC(=O)c3ccccc3)[C@]3(O)C[C@H](OC(=O)[C@H](O)[C@@H](NC(=O)OC(C)(C)C)C4CCC4)C(C)=C1C3(C)C)[C@]1(OC(C)=O)CO[C@@H]1C[C@@H]2O` (some centres unmarked) [Compound 2424] was tested. Which IC50 did it give?
The IC50 was less than 10 nM.

`CC(=O)O[C@@]12CO[C@@H]1C[C@H](O)[C@@]1(C)C(=O)[C@H](OC(=O)C3CC3)C3=C(C)[C@@H](OC(=O)[C@H](O)[C@@H](NC(=O)OCC(C)C)c4ccco4)C[C@@](O)([C@@H](OC(=O)c4ccccc4)C12)C3(C)C` (some centres unmarked) [Compound 3102] was tested. Which IC50 did it give?
The IC50 was less than 1 nM.

`CC(=O)OC12COC1CC(O)C1(C)C(=O)C(OC(=O)c3ccco3)C3=C(C)C(OC(=O)C(O)C(NC(=O)OC(C)(C)C)c4ccccc4)CC(O)(C(OC(=O)c4ccccc4)C21)C3(C)C` (centres unmarked) [Compound 2212] was tested. Which IC50 did it give?
Its IC50 is less than 10 nM.

How did the IC50 turn out when `CCC(=O)O[C@H]1C(=O)[C@@]2(C)C([C@H](OC(=O)c3ccccc3)[C@]3(O)C[C@H](OC(=O)[C@H](O)[C@@H](NC(=O)OC(C)(C)C)c4ccc([N+](=O)[O-])cc4)C(C)=C1C3(C)C)[C@]1(OC(C)=O)CO[C@@H]1C[C@@H]2O` (some centres unmarked) [Compound 0602] was run?
The IC50 was less than 1 nM.

With `CCCC(=O)O[C@H]1C(=O)[C@@]2(C)C([C@H](OC(=O)c3ccccc3)[C@]3(O)C[C@H](OC(=O)[C@H](O)[C@@H](NC(=O)OC(C)C)c4ccco4)C(C)=C1C3(C)C)[C@]1(OC(C)=O)CO[C@@H]1C[C@@H]2O` (some centres unmarked) [Compound 3417] as the molecule, how does the IC50 read?
The IC50 was less than 1 nM.

With `CC(=O)O[C@@]12CO[C@@H]1C[C@H](O)[C@@]1(C)C(=O)[C@H](OC(=O)C3CC3)C3=C(C)[C@@H](OC(=O)[C@H](O)[C@@H](NC(=O)c4cccs4)c4ccco4)C[C@@](O)([C@@H](OC(=O)c4ccccc4)C12)C3(C)C` (some centres unmarked) [Compound 3663] as the molecule, how does the IC50 read?
The IC50 was less than 1 nM.

`CCC(=O)O[C@H]1C(=O)[C@@]2(C)C([C@H](OC(=O)c3ccccc3)[C@]3(O)C[C@H](OC(=O)[C@H](O)[C@@H](NC(=O)c4ccccc4)C4CC4)C(C)=C1C3(C)C)[C@]1(OC(C)=O)CO[C@@H]1C[C@@H]2O` (some centres unmarked) [Compound 0706] was tested. Which IC50 did it give?
Its IC50 is less than 1 nM.

Which IC50 does the source give for `CCCC(=O)O[C@H]1C(=O)[C@@]2(C)C([C@H](OC(=O)c3ccccc3)[C@]3(O)C[C@H](OC(=O)[C@H](O)[C@@H](NC(=O)c4ccco4)c4ccco4)C(C)=C1C3(C)C)[C@]1(OC(C)=O)CO[C@@H]1C[C@@H]2O` (some centres unmarked) [Compound 3686] here?
The IC50 was less than 1 nM.

For `CC(=O)O[C@@]12CO[C@@H]1C[C@H](O)[C@@]1(C)C(=O)[C@H](OC(=O)C3CC3)C3=C(C)[C@@H](OC(=O)[C@H](O)[C@@H](NC(=O)c4cccs4)c4cccs4)C[C@@](O)([C@@H](OC(=O)c4ccccc4)C12)C3(C)C` (some centres unmarked) [Compound 3453], which IC50 is on record?
Its IC50 is less than 1 nM.

For `CCCC(=O)O[C@H]1C(=O)[C@@]2(C)C([C@H](OC(=O)c3ccccc3)[C@]3(O)C[C@H](OC(=O)[C@H](O)[C@@H](NC(=O)OCC(C)C)c4ccco4)C(C)=C1C3(C)C)[C@]1(OC(C)=O)CO[C@@H]1C[C@@H]2O` (some centres unmarked) [Compound 3110], which IC50 is on record?
The IC50 was less than 1 nM.

Which IC50 does the source give for `CCCC(=O)N[C@@H](c1ccco1)[C@@H](O)C(=O)O[C@H]1C[C@@]2(O)[C@@H](OC(=O)c3ccccc3)C3[C@](C)(C(=O)[C@H](OC(=O)CC)C(=C1C)C2(C)C)[C@@H](O)C[C@H]1OC[C@@]31OC(C)=O` (some centres unmarked) [Compound 3219] here?
Its IC50 is less than 1 nM.

— patent US7524869B2, “Taxanes having a C10 ester substituent” (Florida State University Research Foundation, Inc., priority 2000, dated 2009)
